These results are taken from patent publication US10975119B2, “Selective cysteine protease inhibitors and uses thereof” (Genesis Technologies Limited, priority 2011, dated 2021).

pIC50: −log10 of the molar value. Counter-ions that a name gives are not always drawn. Like-named read-outs stand apart in the source and are kept apart here. Some results are limits rather than exact numbers.

For orientation: inhibition means the percentage by which the read-out fell short of the control. For orientation: pIC50 means −log10 of the IC50, conventionally taken in molar units.

Holding throughout (assay type): biochemical
The target in one assay is T1, Caspase-1 (Homo sapiens, UniProt P29466).
T1 construct: mixing the compounds with the respective active caspases; purchased BioVision K151-100
T1 sequence (P29466 120-297 limits assumed): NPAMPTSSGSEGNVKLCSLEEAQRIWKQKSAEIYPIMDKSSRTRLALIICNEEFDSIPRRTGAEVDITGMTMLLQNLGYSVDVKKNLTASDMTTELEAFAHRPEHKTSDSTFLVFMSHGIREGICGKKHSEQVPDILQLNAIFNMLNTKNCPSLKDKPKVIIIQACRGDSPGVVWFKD
T1 sequence (P29466 317-404 limits assumed): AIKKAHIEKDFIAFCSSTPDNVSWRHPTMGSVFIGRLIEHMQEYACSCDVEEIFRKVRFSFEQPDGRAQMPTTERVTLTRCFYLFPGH
Briefly: Caspase-1 inhibitor screening assay (BioVision kit, YVAD-AFC). The conditions noted are these: for inhibition at 10 µM: read-out: % Inhibition at 10 uM Casp1; for inhibition at 100 µM: read-out: % Inhibition at 100 uM Casp1. In a few lines:
(§1)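 Each caspase cleaved its own AFC-labelled peptide substrate, and released AFC was read by fluorescence. % inhibition came from RFU against an uninhibited control.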

A further assay addresses T2, Caspase-2 (Homo sapiens, UniProt P42575).
T2 construct: mixing the compounds with the respective active caspases; purchased BioVision K152-100
T2 sequence (P42575 170-325 limits assumed): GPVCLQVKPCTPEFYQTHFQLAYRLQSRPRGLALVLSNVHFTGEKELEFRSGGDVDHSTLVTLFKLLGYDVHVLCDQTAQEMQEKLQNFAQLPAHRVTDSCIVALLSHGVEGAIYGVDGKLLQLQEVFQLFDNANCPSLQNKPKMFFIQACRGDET
T2 sequence (P42575 334-452 limits assumed): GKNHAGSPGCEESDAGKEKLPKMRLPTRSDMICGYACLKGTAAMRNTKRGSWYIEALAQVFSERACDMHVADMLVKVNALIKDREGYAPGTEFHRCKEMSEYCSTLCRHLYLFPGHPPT
Briefly: Caspase-2 inhibitor screening assay (BioVision kit, VDVAD-AFC). The conditions noted are these: for inhibition at 10 µM: read-out: % Inhibition at 10 uM Casp2; for inhibition at 100 µM: read-out: % Inhibition at 100 uM Casp2; for pIC50: read-out: IC50 Casp2. Summed up: as §1

For the next assay, the target named is T3, Caspase-3 (Homo sapiens, UniProt P42574).
T3 construct: mixing the compounds with the respective active caspases; purchased BioVision K153-100
T3 sequence (P42574 29-175 limits assumed): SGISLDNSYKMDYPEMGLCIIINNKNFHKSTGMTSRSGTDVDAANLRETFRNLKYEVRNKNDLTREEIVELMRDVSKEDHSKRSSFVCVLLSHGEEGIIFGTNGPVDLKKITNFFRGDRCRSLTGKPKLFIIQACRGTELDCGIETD
T3 sequence (P42574 176-277 limits assumed): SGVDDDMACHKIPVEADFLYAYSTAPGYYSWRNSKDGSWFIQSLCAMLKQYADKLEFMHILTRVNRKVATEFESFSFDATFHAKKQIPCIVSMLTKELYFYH
Briefly: Caspase-3 inhibitor screening assay (BioVision kit, DEVD-AFC). The conditions noted are these: for inhibition at 10 µM: read-out: % Inhibition at 10 uM Casp3; for inhibition at 100 µM: read-out: % Inhibition at 100 uM Casp3. In a few lines: as §1

Another assay concerns the target T4, Caspase-7 (Homo sapiens, UniProt P55210).
T4 construct: mixing the compounds with the respective active caspases; purchased BioVision K157-100
T4 sequence (P55210 24-198 limits assumed): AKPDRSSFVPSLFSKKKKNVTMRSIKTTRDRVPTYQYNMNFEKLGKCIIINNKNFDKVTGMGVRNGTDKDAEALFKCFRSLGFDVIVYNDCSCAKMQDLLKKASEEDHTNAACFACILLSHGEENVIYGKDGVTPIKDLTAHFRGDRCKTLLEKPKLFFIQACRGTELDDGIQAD
T4 sequence (P55210 207-303 limits assumed): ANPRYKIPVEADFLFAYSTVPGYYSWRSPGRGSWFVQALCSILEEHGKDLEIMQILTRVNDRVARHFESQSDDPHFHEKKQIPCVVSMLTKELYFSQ
Briefly: Caspase-7 inhibitor screening assay (BioVision kit, DEVD-AFC). The conditions noted are these: for inhibition at 10 µM: read-out: % Inhibition at 10 uM Casp7; for inhibition at 100 µM: read-out: % Inhibition at 100 uM Casp7. In a few lines:
as §1

The target of another assay is T5, Caspase-8 (Homo sapiens, UniProt Q14790).
T5 construct: mixing the compounds with the respective active caspases; purchased BioVision K158-100
T5 sequence (Q14790 217-374 limits assumed): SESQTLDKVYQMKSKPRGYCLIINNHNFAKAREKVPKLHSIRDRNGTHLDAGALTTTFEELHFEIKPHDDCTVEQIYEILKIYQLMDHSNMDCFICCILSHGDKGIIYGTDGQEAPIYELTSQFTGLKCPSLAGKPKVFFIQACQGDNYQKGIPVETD
T5 sequence (Q14790 385-479 limits assumed): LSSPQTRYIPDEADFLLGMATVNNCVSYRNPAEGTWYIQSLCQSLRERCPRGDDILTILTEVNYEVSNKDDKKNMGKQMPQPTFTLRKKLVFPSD
Briefly: Caspase-8 inhibitor screening assay (BioVision kit, IETD-AFC). The conditions noted are these: for inhibition at 10 µM: read-out: % Inhibition at 10 uM Casp8; for inhibition at 100 µM: read-out: % Inhibition at 100 uM Casp8. In a few lines:
as §1

Another assay addresses T6, Caspase-9 (Homo sapiens, UniProt P55211).
T6 construct: purchased BioVision K159-100
T6 sequence (P55211 1-315 limits assumed): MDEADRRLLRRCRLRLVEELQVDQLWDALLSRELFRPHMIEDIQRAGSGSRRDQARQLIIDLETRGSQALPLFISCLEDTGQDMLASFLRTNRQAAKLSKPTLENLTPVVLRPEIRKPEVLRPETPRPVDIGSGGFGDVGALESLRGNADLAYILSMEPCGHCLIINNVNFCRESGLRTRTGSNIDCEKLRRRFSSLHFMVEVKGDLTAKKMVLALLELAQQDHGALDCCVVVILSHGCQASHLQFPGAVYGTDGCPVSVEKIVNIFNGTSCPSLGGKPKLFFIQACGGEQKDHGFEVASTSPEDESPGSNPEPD
T6 sequence (P55211 331-416 limits assumed): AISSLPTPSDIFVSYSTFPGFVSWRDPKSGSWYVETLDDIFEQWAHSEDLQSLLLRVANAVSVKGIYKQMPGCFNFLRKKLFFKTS
Briefly: Caspase-9 inhibitor screening assay (BioVision kit, LEHD-AFC). The note with it: for inhibition at 10 µM: read-out: % Inhibition at 10 uM Casp9; for inhibition at 100 µM: read-out: % Inhibition at 100 uM Casp9. Summed up:
as §1

The mark [1] stands for this setting: read-out: potency (IC50) against caspase-1.

With `CC(C)[C@H](NC(=O)[C@H](CCC(=O)O)NC(=O)[C@H](Cc1c[nH]c2ccccc12)NC(=O)OCc1ccccc1)C(=O)N[C@H](/C=C/S(C)(=O)=O)CC(=O)O` [Compound 40, Z-Trp-Glu-Val-Asp-methyl vinyl sulfone], the inhibition at 10 µM at Caspase-1 was found to be 99%; at Caspase-2 it was 1%; at Caspase-3 it was 63%; at Caspase-7, 19%; on Caspase-8, 61%; at Caspase-9 it was 87%. Also, the inhibition at 100 µM is 100% at Caspase-1; 10% at Caspase-2; 94% on Caspase-3; 90% on Caspase-7; 96% on Caspase-8; 99% at Caspase-9. Besides, the pIC50 at Caspase-1 (setting [1]) was 7.59; at Caspase-2, less than 4.00; on Caspase-3 (read-out: IC50 Casp3) it was 5.18; at Caspase-7 (read-out: IC50 Casp7), 4.63; at Caspase-8 (read-out: IC50 Casp8), 5.23; at Caspase-9 (read-out: IC50 Casp9) it was 5.76.
On to `CC(C)[C@H](NC(=O)[C@@H](N)Cc1ccc(O)cc1)C(=O)N[C@@H](C)C(=O)N[C@H](/C=C/S(C)(=O)=O)CC(=O)O` [Compound 42, Tyr-Val-Ala-Asp methyl vinyl sulfone], for which the inhibition at 10 µM on Caspase-1 amounted to 26%; on Caspase-2, 0%; on Caspase-3, 0%; on Caspase-7, 0%; on Caspase-8 it was 12%; at Caspase-9, 0%. For the same compound, the inhibition at 100 µM at Caspase-1 turned out to be 72%; on Caspase-2 it was 0%; at Caspase-3 it was 0%; at Caspase-7 it was 0%; on Caspase-8 it was 30%; on Caspase-9 it was 26%. Besides, the pIC50 was 4.47 on Caspase-1 (read-out: IC50 Casp1); less than 4.00 at Caspase-2; less than 4.00 on Caspase-3 (read-out: IC50 Casp3); less than 4.00 at Caspase-7 (read-out: IC50 Casp7); less than 4.00 at Caspase-8 (read-out: IC50 Casp8); less than 4.00 on Caspase-9 (read-out: IC50 Casp9).
For the compound `CCOC(=O)/C=C/[C@@H](N)CC(=O)O` [Compound 44, Asp ethyl vinyl ester tosyl salt], the inhibition at 10 µM at Caspase-1, on Caspase-2, at Caspase-3, at Caspase-7, on Caspase-8 and on Caspase-9 was 0% in each case. Moreover, the inhibition at 100 µM at Caspase-1 was 0%; at Caspase-2, 3%; at Caspase-3, 0%; on Caspase-7 it was 0%; on Caspase-8, 7%; on Caspase-9, 0%. In addition, the pIC50 at Caspase-1 (read-out: IC50 Casp1), at Caspase-2, at Caspase-3 (read-out: IC50 Casp3), on Caspase-7 (read-out: IC50 Casp7), at Caspase-8 (read-out: IC50 Casp8) and at Caspase-9 (read-out: IC50 Casp9) was less than 4.00 in each case.
On to `CC(C)[C@H](NC(=O)[C@@H](NC(=O)[C@H](CC(=O)O)NC(=O)OCc1ccccc1)c1ccccc1)C(=O)N[C@H](/C=C/S(C)(=O)=O)CCC(=O)O` [Compound 84, Z-Asp-Phg-Val-Glu methyl vinyl sulfone], for which the inhibition at 10 µM on Caspase-1 stood at 0%; at Caspase-2 it was 0%; at Caspase-3 it was 39%; on Caspase-7, 9%; at Caspase-8, 9%; on Caspase-9 it was 0%. The inhibition at 100 µM was 0% at Caspase-1; 3% on Caspase-2; 88% at Caspase-3; 76% at Caspase-7; 10% on Caspase-8; 6% at Caspase-9. Moreover, the pIC50 on Caspase-1 (read-out: IC50 Casp1) was less than 4.00; at Caspase-2, less than 4.00; on Caspase-3 (read-out: IC50 Casp3), 4.82; on Caspase-7 (read-out: IC50 Casp7), 4.30; at Caspase-8 (read-out: IC50 Casp8), less than 4.00; on Caspase-9 (read-out: IC50 Casp9) it was less than 4.00.
On to `CCOC(=O)/C=C/[C@H](CC(=O)O)NC(=O)[C@@H](NC(=O)[C@@H](NC(=O)[C@H](CC(=O)O)NC(=O)OCc1ccccc1)c1ccccc1)C(C)C` [Compound 105, Z-Asp-Phg-Val-Asp Ethyl Vinyl Ester], for which the inhibition at 10 µM at Caspase-1 was determined as 84%; at Caspase-2 it was 0%; at Caspase-3, 99%; on Caspase-7 it was 99%; on Caspase-8 it was 77%; at Caspase-9, 92%. Also, the inhibition at 100 µM amounted to 96% on Caspase-1; 17% on Caspase-2; 100% at Caspase-3; 99% on Caspase-7; 79% on Caspase-8; 92% on Caspase-9. Further, the pIC50 is 5.98 at Caspase-1 (setting [1]); 7.52 at Caspase-3 (read-out: IC50 Casp3); 7.57 at Caspase-3 (read-out: potency (IC50) against caspase-3); 6.82 at Caspase-7 (read-out: IC50 Casp7); 6.84 on Caspase-7 (read-out: potency (IC50) against caspase-7); 5.58 on Caspase-8 (read-out: IC50 Casp8). The pIC50 is 5.58 at Caspase-8 (read-out: potency (IC50) against caspase-8), 6.00 on Caspase-9 (read-out: IC50 Casp9) and 6.00 on Caspase-9 (read-out: potency (IC50) against caspase-9).
With `CCOC(=O)/C=C/[C@H](CC(=O)O)NC(=O)[C@H]1CCCN1C(=O)[C@@H](NC(=O)c1ccc(N)c(Cl)c1)C(C)(C)C` [Compound 116, (4-amino-3-chlorobenzene carbonyl)-t-Leu-Pro-Asp Ethyl vinyl ester], the pIC50 was 8.00 at Caspase-1 (read-out: IC50 Casp1); less than 4.00 on Caspase-2; 4.48 on Caspase-3 (read-out: IC50 Casp3); 5.44 on Caspase-7 (read-out: IC50 Casp7); 6.22 at Caspase-8 (read-out: IC50 Casp8); 6.08 at Caspase-9 (read-out: IC50 Casp9).
On to `CCOC(=O)/C=C/[C@H](CC(=O)O)NC(=O)[C@H]1CCCN1C(=O)[C@@H](NC(=O)c1ccc2ccccc2n1)C(C)(C)C` [Compound 118, 2-Quinoline carbonyl-t-Leu-Pro-Asp Ethyl Vinyl Ester], for which the inhibition at 10 µM worked out at 100% at Caspase-1; 4% on Caspase-2; 0% on Caspase-3; 3% at Caspase-7; 36% on Caspase-8; 53% on Caspase-9. In addition, the inhibition at 100 µM on Caspase-1 was found to be 100%; on Caspase-2, 10%; on Caspase-3 it was 15%; on Caspase-7 it was 8%; at Caspase-8, 89%; at Caspase-9, 92%. The pIC50 on Caspase-1 (read-out: IC50 Casp1) is 7.52; on Caspase-2 it was less than 4.00; on Caspase-3 (read-out: IC50 Casp3), less than 4.00; at Caspase-7 (read-out: IC50 Casp7), less than 4.00; at Caspase-8 (read-out: IC50 Casp8), 4.67; on Caspase-9 (read-out: IC50 Casp9) it was 5.05.
